According to patent publication US20130324412A1, “N-ALKOXYAMIDES OF 6-(SUBSTITUTED PHENYL)-4-AMINOPICOLINATES AND 2-(SUBSTITUTED PHENYL)-6-AMINO-4-PYRIMIDINECARBOXYLATES AND THEIR USE AS SELECTIVE HERBICIDES FOR CROPS” (DOW AGROSCIENCES LLC, priority 2009, published 2013):

Legend:
Assay type in all cases: in vivo
corn (Zea mays) = test: General postemergence herbicidal activity, corn; conditions: post-emergence, 336 h, postemergence, after 14 d, 0 = no injury, 100 = complete kill, read-out: ZEAMX % Visual Injury; for plant injury at 35 g/ha: 35 g ai/ha; for plant injury at 70 g/ha: 70 g ai/ha; for plant injury at 140 g/ha: 140 g ai/ha
Description: (§1) Seeds or nutlets of the desired test plant species were planted in Sun Gro MetroMix® 360 planting mixture, which typically has a pH of 6.0 to 6.8 and an organic matter content of about 30 percent, in plastic pots with a surface area of 64 square centimeters (cm^2). When required to ensure good germination and healthy plants, a fungicide treatment and/or other chemical or physical treatment was applied. The plants were grown for 7-21 days (d) in a greenhouse with an approximate 15-hour (h) photoperiod which was maintained at about 23-29° C. during the day and 22-28° C. during the night. Nutrients and water were added on a regular basis and supplemental lighting was provided with overhead metal halide 1000-Watt lamps as necessary. The plants were employed for testing when they reached the first or second true leaf stage.
(§2) A weighed amount, determined by the highest rate to be tested, of each test compound was dissolved in 4 mL of a 97:3 volume per volume (v/v) mixture of acetone and dimethyl sulfoxide (DMSO) to obtain concentrated stock solutions. […] The concentrated stock solutions obtained were diluted with 20 mL of an aqueous mixture containing acetone, water, isopropyl alcohol, DMSO, Atplus 411F crop oil concentrate, and Triton X-155 surfactant in a 48.5:39:10:1.5:1.0:0.02 v/v ratio to obtain spray solutions containing the highest application rates. Additional application rates were obtained by serial dilution of 12 mL of the high rate solution into a solution containing 2 mL of 97:3 v/v mixture of acetone and DMSO and 10 mL of an aqueous mixture containing acetone, water, isopropyl alcohol, DMSO, Atplus 411F crop oil concentrate, and Triton X-155 surfactant in a 48.5:39:10:1.5:1.0:0.02 v/v ratio to obtain ½×, ¼×, ⅛× and 1/16× rates of the high rate. Compound requirements are based upon a 12 mL application volume at a rate of 187 liters per hectare (L/ha). Formulated compounds were applied to the plant material with an overhead Mandel track sprayer equipped with 8002E nozzles calibrated to deliver 187 L/ha over an application area of 0.503 square meters (m^2) at a spray height of 18 inches (43 cm) above the average plant canopy height. Control plants were sprayed in the same manner with the solvent blank.
(§3) The treated plants and control plants were placed in a greenhouse as described above and watered by sub-irrigation to prevent wash-off of the test compounds. After 14 d, the condition of the test plants as compared with that of the untreated plants was determined visually and scored on a scale of 0 to 100 percent where 0 corresponds to no injury and 100 corresponds to complete kill.

[1] = tested on: velvetleaf (Abutilon theophrasti); test: General postemergence herbicidal activity, velvetleaf; conditions: post-emergence, 336 h, postemergence, after 14 d, 0 = no injury, 100 = complete kill, read-out: ABUTH % Visual Injury; for pest or weed control at 35 g/ha: 35 g ai/ha; for pest or weed control at 70 g/ha: 70 g ai/ha; for pest or weed control at 140 g/ha: 140 g ai/ha
Description: as §1, §2, §3

[2] = tested on: lambsquarters (Chenopodium album); test: General postemergence herbicidal activity, lambsquarters; conditions: post-emergence, 336 h, postemergence, after 14 d, 0 = no injury, 100 = complete kill, read-out: CHEAL % Visual Injury; for pest or weed control at 35 g/ha: 35 g ai/ha; for pest or weed control at 70 g/ha: 70 g ai/ha; for pest or weed control at 140 g/ha: 140 g ai/ha
Description: as §1, §2, §3

[3] = tested on: wild buckwheat (Polygonum convululus); test: General postemergence herbicidal activity, wild buckwheat; conditions: post-emergence, 336 h, postemergence, after 14 d, 0 = no injury, 100 = complete kill, read-out: POLCO % Visual Injury; for pest or weed control at 35 g/ha: 35 g ai/ha; for pest or weed control at 70 g/ha: 70 g ai/ha; for pest or weed control at 140 g/ha: 140 g ai/ha
Description: as §1, §2, §3

For `COc1c(Cl)ccc(-c2cc(N)c(Cl)c(C(=O)NOCc3ccccc3)n2)c1F` [Compound 5, 4-Amino-N-(benzyloxy)-3-chloro-6-(4-chloro-2-fluoro-3-methoxyphenyl)picolinamide], the plant injury at 35 g/ha (corn (Zea mays)) was 0%, the pest or weed control at 35 g/ha [1] was 100% and the pest or weed control at 35 g/ha [2] was 100%. For the same molecule, the pest or weed control at 35 g/ha [3] was 100%.

Molecule `COc1c(Cl)ccc(-c2cc(N)c(Cl)c(C(=O)N(C)OC)n2)c1F` [Compound 6, 4-Amino-3-chloro-6-(4-chloro-2-fluoro-3-methoxyphenyl)-N-methoxy-N-methyl-picolinamide] has a plant injury at 70 g/ha (corn (Zea mays)) of 0%, a pest or weed control at 70 g/ha [1] of 100% and a pest or weed control at 70 g/ha [2] of 100%. The pest or weed control at 70 g/ha [3] was 100%.

`CCCONC(=O)c1nc(-c2ccc(Cl)c(OC)c2F)cc(N)c1Cl` [Compound 7, 4-Amino-3-chloro-6-(4-chloro-2-fluoro-3-methoxyphenyl)-N-propoxypicolinamide] showed a plant injury at 35 g/ha (corn (Zea mays)) of 25%, a pest or weed control at 35 g/ha [1] of 100% and a pest or weed control at 35 g/ha [2] of 100%. For the same molecule, the pest or weed control at 35 g/ha [3] was 100%.

For `COc1c(Cl)ccc(-c2cc(N)c(Cl)c(C(=O)NOC(C)C)n2)c1F` [Compound 8, 4-Amino-3-chloro-6-(4-chloro-2-fluoro-3-methoxyphenyl)-N-isopropoxypicolinamide], the plant injury at 70 g/ha (corn (Zea mays)) was 0%, the pest or weed control at 70 g/ha [1] was 100% and the pest or weed control at 70 g/ha [2] was 100%. It also gave a pest or weed control at 70 g/ha [3] of 100%.

With `C=CCON(C(C)=O)C(=O)c1nc(-c2ccc(Cl)c(OC)c2F)nc(N)c1C=C` [Compound 9, N-Acetyl-N-(2-propenyloxy)-6-amino-2-(4-chloro-2-fluoro-3-methoxyphenyl)-5-vinylpyrimidine-4-carboxamide] the plant injury at 140 g/ha (corn (Zea mays)) was 25%, the pest or weed control at 140 g/ha [1] was 95% and the pest or weed control at 140 g/ha [2] was 100%. For the same molecule, the pest or weed control at 140 g/ha [3] was 80%.

Work on `C=CCONC(=O)c1nc(-c2ccc(Cl)c(OC)c2F)nc(N)c1C=C` [Compound 10, N-(2-Propenyloxy)-6-amino-2-(4-chloro-2-fluoro-3-methoxyphenyl)-5-vinylpyrimidine-4-carboxamide] yielded a plant injury at 140 g/ha (corn (Zea mays)) of 15%, a pest or weed control at 140 g/ha [1] of 100% and a pest or weed control at 140 g/ha [2] of 85%. It also gave a pest or weed control at 140 g/ha [3] of 15%.

`C=CCONC(=O)c1nc(C2CC2)nc(N)c1Cl` [Compound 11, N-(2-Propenyloxy)-6-amino-5-chloro-2-cyclopropylpyrimidine-4-carboxamide] was tested, and the plant injury at 140 g/ha (corn (Zea mays)) was 20%, the pest or weed control at 140 g/ha [1] was 40% and the pest or weed control at 140 g/ha [2] was 100%. It also gave a pest or weed control at 140 g/ha [3] of 100%.

`COc1c(Cl)ccc(-c2cc(N)c(Cl)c(C(=O)NOC3CCCCO3)n2)c1F` (stereo not drawn) [Compound 12, 4-amino-3-chloro-6-(4-chloro-2-fluoro-3-methoxyphenyl)-N-(tetrahydro-2H-pyran-2-yloxy)picolinamide] gave a plant injury at 70 g/ha (corn (Zea mays)) of 0%, a pest or weed control at 70 g/ha [1] of 100% and a pest or weed control at 70 g/ha [2] of 100%. For the same molecule, the pest or weed control at 70 g/ha [3] was 100%.

For `C#CCONC(=O)c1nc(-c2ccc(Cl)c(OC)c2F)cc(N)c1Cl` [Compound 13, 4-Amino-3-chloro-6-(4-chloro-2-fluoro-3-methoxyphenyl)-N-(2-propynyloxy)picolinamide], the plant injury at 70 g/ha (corn (Zea mays)) was 0%, the pest or weed control at 70 g/ha [1] was 100% and the pest or weed control at 70 g/ha [2] was 100%. It also gave a pest or weed control at 70 g/ha [3] of 100%.

`COc1c(Cl)ccc(-c2cc(N)c(Cl)c(C(=O)NOCc3ccc(C)cc3)n2)c1F` [Compound 14, 4-Amino-3-chloro-6-(4-chloro-2-fluoro-3-methoxyphenyl)-N-(4-methyl-benzyloxy)picolinamide] gave a plant injury at 70 g/ha (corn (Zea mays)) of 15%, a pest or weed control at 70 g/ha [1] of 100% and a pest or weed control at 70 g/ha [2] of 100%. The pest or weed control at 70 g/ha [3] was 100%.

`COc1c(Cl)ccc(-c2cc(N)c(Cl)c(C(=O)NOCc3ccc(Cl)cc3)n2)c1F` [Compound 15, 4-Amino-3-chloro-6-(4-chloro-2-fluoro-3-methoxyphenyl)-N-(4-chloro-benzyloxy)picolinamide] gave a plant injury at 70 g/ha (corn (Zea mays)) of 10%, a pest or weed control at 70 g/ha [1] of 100% and a pest or weed control at 70 g/ha [2] of 100%. It also gave a pest or weed control at 70 g/ha [3] of 100%.

For `COC[C@H]1O[C@H](ONC(=O)c2nc(-c3ccc(Cl)c(OC)c3F)cc(N)c2Cl)[C@H](OC)[C@@H](OC)[C@@H]1OC` [Compound 16, 4-Amino-3-chloro-6-(4-chloro-2-fluoro-3-methoxyphenyl)-N-((2R,3R,4S,5R,6R)-3,4,5-trimethoxy-6-(methoxymethyl)tetrahydro-2H-pyran-2-yloxy)picolinamide], the plant injury at 70 g/ha (corn (Zea mays)) was 10%, the pest or weed control at 70 g/ha [1] was 100% and the pest or weed control at 70 g/ha [2] was 100%. The pest or weed control at 70 g/ha [3] was 95%.

`COc1c(Cl)ccc(-c2cc(N)c(Cl)c(C(=O)NOC3CCCO3)n2)c1F` (stereo not drawn) [Compound 17, 4-Amino-3-chloro-6-(4-chloro-2-fluoro-3-methoxyphenyl)-N-(tetrahydrofuran-2-yloxy)picolinamide] was tested, and the plant injury at 70 g/ha (corn (Zea mays)) was 10%, the pest or weed control at 70 g/ha [1] was 100% and the pest or weed control at 70 g/ha [2] was 100%. The pest or weed control at 70 g/ha [3] was 100%.

Work on `COc1c(Cl)ccc(-c2cc(N)c(Cl)c(C(=O)NOC3C=CCCC3)n2)c1F` (stereo not drawn) [Compound 18, 4-Amino-3-chloro-6-(4-chloro-2-fluoro-3-methoxyphenyl)-N-(cyclohex-2-enyl-oxy)picolinamide] yielded a plant injury at 140 g/ha (corn (Zea mays)) of 5%, a pest or weed control at 140 g/ha [1] of 100% and a pest or weed control at 140 g/ha [2] of 100%. The pest or weed control at 140 g/ha [3] was 100%.

`COc1c(Cl)ccc(-c2cc(N)c(Cl)c(C(=O)NOCC(=O)O)n2)c1F` [Compound 19, 2-(4-Amino-3-chloro-6-(4-chloro-2-fluoro-3-methoxyphenyl)picolinamidooxy)acetic acid] gave a plant injury at 35 g/ha (corn (Zea mays)) of 25%, a pest or weed control at 35 g/ha [1] of 85% and a pest or weed control at 35 g/ha [2] of 100%. The pest or weed control at 35 g/ha [3] was 85%.

With `C=C(C)CONC(=O)c1nc(-c2ccc(Cl)c(OC)c2F)cc(N)c1Cl` [Compound 28, 4-Amino-3-chloro-6-(4-chloro-2-fluoro-3-methoxyphenyl)-N-(2-methyl-2-propenyl-oxy)picolinamide] the plant injury at 35 g/ha (corn (Zea mays)) was 25%, the pest or weed control at 35 g/ha [1] was 100% and the pest or weed control at 35 g/ha [2] was 100%.

Molecule `COc1c(Cl)ccc(-c2cc(N)c(Cl)c(C(=O)NOCc3cncs3)n2)c1F` [Compound 36, 4-Amino-3-chloro-6-(4-chloro-2-fluoro-3-methoxyphenyl)-N-(thiazol-5-yl-methoxy)picolinamide] has a plant injury at 35 g/ha (corn (Zea mays)) of 25%, a pest or weed control at 35 g/ha [1] of 100% and a pest or weed control at 35 g/ha [2] of 100%.

For `COc1c(Cl)ccc(-c2cc(N)c(Cl)c(C(=O)NOCc3nnsc3Cl)n2)c1F` [Compound 47, 4-Amino-3-chloro-N-((5-chloro-1,2,3-thiadiazol-4-yl)methoxy)-6-(4-chloro-2-fluoro-3-methoxyphenyl)picolinamide], the plant injury at 17.5 g/ha (corn (Zea mays); 17.5 g ai/ha) was 35%, the pest or weed control at 17.5 g/ha ([1]; 17.5 g ai/ha) was 100% and the pest or weed control at 17.5 g/ha ([2]; 17.5 g ai/ha) was 100%.
